# Test system: Jurkat line JHMI-2.2
# Assay: Cell death of Jurkat cells, visual grading and trypan blue
# Format: cell-based, human
# Settings: scored after 1 to 3 days; 9.3 mAb 10 μg/ml, carbacol 30 μM
# Method: A series of experiments were done to test whether anti-CD28 mAb might prevent cell death in mature T cells. Jurkat leukemia cells are commonly used as an example of mature T cells that mimic physiologic effects found in peripheral blood T cells. […] The Jurkat line JHMI-2.2 was obtained from A. Weiss (UCSF); the muscarinic M1 receptor subtype has been transfected and is stably expressed in these cells. JHMI-2.2 cells, 0.3×10^6/well, were added to culture wells in complete medium, or to wells that contained plastic-adsorbed anti-CD3 mAb G19-4, in the presence or absence of 9.3 mAb 10 μg/ml, or 9.3 mAb alone. Cell death was scored after 1 to 3 days of culture and graded as 0 (none), 1+(20 to 70% of cells dead), and 2+(70 to 100% of cells dead), and was determined by visual inspection of the wells, and confirmed by trypan blue permeability.
smiles,measurement,value
"C[N+](C)(C)CCOC(N)=O [Carbacol, carbacol]",CELL DEATH (GRADE 0-2),1+ (1+(20 to 70% of cells dead))

# Reference: patent US20080305092A1, “Methods of treating autoimmune disease via CTLA-4IG” (THE REGENTS OF THE UNIVERSITY OF MICHIGAN, priority 1993, published 2008)
